{"source": "paper PMC9975698", "about": "“Hyperoside alleviates toxicity of β-amyloid via endoplasmic reticulum-mitochondrial calcium signal transduction cascade in APP/PS1 double transgenic Alzheimer's disease mice” (Redox Biology, 2023)", "key": {"[1]": {"biological_target": "T1, Aβ (1–42) (Homo sapiens, UniProt P05067)", "T1 construct": "purchased DGpeptites, Hangzhou, CHINA", "T1 sequence (P05067 672-713 limits assumed)": "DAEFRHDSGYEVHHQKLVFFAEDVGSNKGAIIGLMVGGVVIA", "experiment": "Thioflavin T (ThT) fluorescence assay of Aβ fibrillation", "format": "biochemical", "details": "Aβ 30 μM, 37 °C, day 1–7", "procedure": "HYP was incubated with Aβ (30 μM) for 7 days at 37 °C at a final volume of 100 μL. ThT fluorescence measurement was measured for every 24 h. ThT (20 μM) dissolved in PBS (pH = 7.4) was added in a black 96-well plate with 10 μL of aggregated Aβ (with or without HYP) and incubated for 1 h. Fluorescence measurement was then performed using a microplate reader (SpectraMax Paradigm, Molecular Devices, CA, USA) with an excitation wavelength of 450 nm and an emission wavelength of 490 nm. Background fluorescence was measured in control samples containing PBS and 0.02 % DMSO."}, "[2]": {"biological_target": "T2, Aβ aggregate (Homo sapiens, UniProt P05067)", "T2 construct": "purchased DGpeptites, Hangzhou, CHINA", "T2 sequence (P05067 672-713 limits assumed)": "as above", "experiment": "LC/MS/MS Aβ binding propensity (reduction of HYP peak area in MRM)", "details": "HYP 20–80 μM with 30 μM Aβ aggregate vs HYP alone", "from_the_text": "Quercetin-3-O-β-D-galactopyranoside (Hyperoside, HYP), belongs to the class of flavonol glycosides and is derived from Crataegus pinnatifida Bunge Aβ is a well-known biomarker correlated to AD, therefore, the effect of HYP in targeting Aβ was investigated by molecular docking. […] HYP with Aβ molecular surface interaction and hydrogen bonding information were shown in supplementary 1A and 1B. […] The formation of Aβ aggregate and its particle size was verified by DLS (Fig. 1C). While the average particle size of the Aβ monomer is 365.62 nm, the particle size of Aβ aggregate is 1877 nm (Fig. 1D). The detection on the formation of Aβ aggregate was then performed by using the ThT fluorescence assay. ThT is a benzothiazole-like small molecule that specifically binds to amyloid fibrils. […] The direct binding affinity of HYP to Aβ aggregate was confirmed by the BLI assay. […] By using HYP alone (without Aβ aggregate incubation) as the control, all incubation mixtures were analyzed by using LC/MS/MS under the same chromatographic conditions according to our previous reported detection method. The quantitative reduction (%) in the peak area, representing the Aβ binding propensity of the tested compound [39] is used for statistical analysis."}, "[3]": {"test_system": "HT22 cells", "experiment": "Cell membrane permeability assay (intracellular HYP by LC-MS/MS)", "format": "in vitro ADME", "details": "HYP 20–80 μM, 24 h", "procedure": "HT22 cells were co-treated with Aβ aggregates and HYP (20–80 μM) for 24 h and washed with PBS for 3 times. The cell membrane was disrupted with 200 μL methanol for the collection and centrifugation of cellular content at 20,000 rpm for 10 min. The supernatant was then collected for LC-MS/MS analysis. HYP content was quantified using UHPLC-MS/MS system, which includes Agilent 1290 Infinity UHPLC, and Agilent 6460 Triple Quadrupole, equipped with an electrospray ionization interface used to generate positive ions for the determination of HYP. The compounds were analyzed by using the Agilent Zorbax Eclipse Plus C-18 column with a particle size of […] (flow rate: 0.35 mL/min). The mobile phase was set as follows: mobile phase A (0.1% formic acid in water) and mobile phase B (0.1% formic acid in ACN): 0–3 min, 10–30% B; 3–4 min, 70% B; 4–5 min, 30–70% B; 5–6 min, 70-10% B. The column and auto-sampler temperature were maintained at 30 °C and 4 °C, respectively. Data were analyzed by using Agilent MassHunter Workstation software B.01.03. The gas temperature was set at 300 °C with a flow rate of 11 L/min. Gases were set at 30 psi for the nebulizer, capillary, at 4000 V. For the HYP, the fragment was 170. The collision energy was set at 30; The mass transitions were as follows based on multiple reaction monitoring: m/z 464.38 → 299.9. For the Isorhamnetin (ISO), the fragment was 150. […]"}, "[4]": {"test_system": "APP/PS1 mice", "experiment": "Western blot of Bcl-2, Bax and cyto-c in cortex and hippocampus lysates", "format": "in vivo", "details": "8 weeks of HYP treatment vs APP/PS1 untreated group", "procedure": "After HYP treatment, the cells were lysed with RIPA. Protein concentrations were determined by Bio-Rad protein assay (Bio-Rad Laboratories, CA, USA). After electrophoretic separation, the gels were blotted and stained with primary antibodies. Binding of antibodies was visualized with peroxidase-coupled secondary antibodies using ECL Western Blotting detection reagents (Invitrogen, Scotland, UK). Band intensities were quantified using ImageJ software. Data were obtained from three independent experiments. All animal care and experimental procedures were performed in accordance with the “Institutional Animal Care and User Committee Guidelines” of the Macau University of Science and Technology. APP/PSEN1 (APP/PS1) mice (N000175) were purchased from the Nanjing Institute of Biomedical Sciences, Nanjing University, China, weighing 25 ± 5 g. The animals were housed in a temperature-controlled room with a 12 h light/dark cycle and given ad libitum food and water. Male mice were randomly divided into the following 6 experimental groups. (a) wild-type group (n = 6), (b) APP/PS1 group (n = 6), (c) HYP (20 mg/kg group) (n = 7), (d) HYP (40 mg/kg) group (n = 8), (e) HYP (80 mg/kg) group (n = 8) and (f) memantine (MEM) (10 mg/kg) positive control group (n = 8). […]"}, "[5]": {"test_system": "HT22 cells", "experiment": "Cytotoxicity (MTT) assay", "format": "cell-based", "procedure": "Cytotoxicity was assessed using the MTT (5.0 mg/mL) assay. 4 × 10^3 HT22 cells per well were seeded in 96-well plates. After overnight incubation, cells were treated with Aβ aggregates (30 μM) for 48 h with or without the presence of HYP (20–80 μM). Cells were treated with DMSO as a control. Subsequently, MTT (10 μL) was added to each well for 4 h, followed by the addition of 100 μL of lysis buffer (10% SDS in 0.01 mol/L hydrochloric acid) and overnight incubation. The absorbance was measured at 570 nm the next day. The formula was calculated as a percentage of cell viability: Cell viability (%) = A (treatded) / A (control) × 100%. Data were obtained from three independent experiments in triplicate."}, "[6]": {"test_system": "HT22 cells", "experiment": "Mitochondrial membrane potential by JC-1", "format": "cell-based", "excerpt": "The mitochondrial membrane potential of HT22 stained with 5,5′,6,6′-tetrachloro-1,1′,3,3′-tetraethylbenzimidazolyl cobalt iodide (JC-1) was observed by laser scanning confocal microscopy."}}}
{"smiles": "O=c1c(O[C@@H]2O[C@H](CO)[C@H](O)[C@H](O)[C@H]2O)c(-c2ccc(O)c(O)c2)oc2cc(O)cc(O)c12", "note": "[HYP, Quercetin-3-O-β-D-galactopyranoside]", "values": [{"measurement": "Aβ fibrillation and aggregation (ThT fluorescence)", "setting": "[1]", "value": "reduced Aβ fibrillation and aggregation"}, {"measurement": "decrease in the peak area of HYP in MRM (Aβ binding propensity)", "setting": "[2]", "value": "dose-dependent binding affinity"}, {"measurement": "intracellular level of HYP", "setting": "[3]", "value": "increased upon the escalating concentration of HYP"}, {"measurement": "level of Bax, cyto-c, Bcl-2 and Bax/Bcl-2 ratio", "setting": "[4]", "value": "a decrease in the level of both Bax and cyto-c, an increase in Bcl-2 expression, and a reduction in the Bax/Bcl-2 ratio"}, {"measurement": "cellular toxicity of HYP alone (MTT)", "setting": "[5]; HYP 20–80 μM", "value": "no obvious cellular toxicity was observed"}, {"measurement": "cell viability with aggregated Aβ co-treatment (MTT and flow cytometry)", "setting": "[5]; HYP 20–80 μM + aggregated Aβ 30 μM", "value": "increased the cell viability in a dose-dependent manner"}, {"measurement": "mitochondrial membrane potential (ratio of aggregated and monomeric JC-1)", "setting": "[6]; Aβ aggregates + HYP 20–80 μM, 24 h", "value": "rescue the loss of mitochondrial membrane potential induced by Aβ aggregates in a dose-dependent manner"}, {"measurement": "mitochondrial membrane potential (JC-1)", "setting": "[6]; HYP alone", "value": "no effect"}]}
